This is an account of results in patent US9295679B2, “Prodrugs of C-17-heteroaryl steroidal CYP17 inhibitors/antiandrogens: synthesis, in vitro biological activities, pharmacokinetics and antitumor activity” (University of Maryland, Baltimore, priority 2008, dated 2016).

The subject of one experiment is DU-145. Briefly: MTT cell viability assay, DU-145. The experiment is classed as cell-based. The conditions noted are these: DU-145, MTT, 96 hours exposure. On the procedure: (§1) All cell lines were obtained from American Type Culture Collection (Rockville, Md.) and maintained in RPMI 1640 media supplemented with 10% fetal bovine serum and 5% penicillin/streptomycin solution. Cells were grown as a monolayer in a humidified incubator (5% CO2) at 37° C. To determine the effect of the compounds on cell proliferation, cells were plated (2500 cells/well) in 96-well cell culture dishes (Corning, Inc. Corning, N.Y.). After a 24 hr attachment period, media was replaced with fresh media containing compounds (0.01 μM-100 μM) or vehicle (95% ethanol). The cells were then allowed to grow in the presence of the drugs for 96 hours. After 96 hours, relative cell viability was assessed using the MTT reagent (3-(4,5-dimethylthiazol-2-yl)-2,5-diphenyltetrazolium bromide) as described in Patel, et al. 2004^43. Experiments were carried out three times with six replicates per dose per experiment (n=18). Results were plotted using the average of each dose over all three experiments and fitted with a best-fit sigmoidal dose response variable slope curve using GraphPad Prism 4.01 (GraphPad Software, Inc.). […] Combination index (CI) was calculated as previously described^44. CI values less than 1 are considered synergistic.
For orientation: Tetrazolium assays rely on reduction of a dye to a coloured formazan, in cell work by metabolically active cells.

For experiment [1], the system named is PC-3 cells. As to the kind of experiment: Microarray global gene expression in PC-3 cells. The note with it: 20 μM, 24 hrs. The class given is cell-based. As for the experimental part:
After 24 hour exposure to the agent, total RNA was isolated using the Qiagen RNeasy-Mini Kit following the manufacturer's protocol. Experiments were carried out in duplicate, with triplicate samples (dosed independently on 3 different days) from each experiment pooled for analysis on a single chip. Samples were hybridized to a GeneChip® Human Genome Focus Array (Affymetrix Inc., U.S.A.) and analyzed using an Affymetrix Genechip® Scanner 3000 according to the manufacturer's protocol. Gene ontologies were identified using the online Database for Annotation, Visualization, and Integrated Discovery (DAVID) provided by the National Institute of Allergy and Infectious Diseases and the National Institute of Health. […] Stringent criteria of a minimum EASE/P-Value threshold of 0.001 and a gene count threshold of 5 were used to identify altered gene ontologies.

Experiment [2] deals with PC-3 cells. Briefly: Cell cycle analysis by flow cytometry in synchronized PC-3 cells. The experiment is classed as cell-based. The conditions noted are these: 20 μM. As for the experimental part:
Cells were synchronized in the G1/G0 phase by maintaining them in 0.2% FBS-containing media for 96 hours. After starvation, media was replaced with normal growth media (10% FBS) containing vehicle (95% ethanol) or 20 μM VN/124-1 for 12, 18, and 24 hours. At each timepoint, cells were fixed in 70% ethanol at −20° C. for at least 24 hours. Fixed cells were then incubated with 1 mL propidium iodide (PI) staining buffer (1 mg/ml PI, 0.1% Triton-X, and 10 μg/ml RNase A dissolved in PBS) for 1 hour at room temperature and DNA content was measured by flow cytometry analysis using a FACSort flow cytometer (Becton Dickinson, San Jose, Calif.); 15,000 events were analyzed for each sample. ModFit LT version 3.1 (Verity Software House Ind., ME) was used to analyze cell cycle distribution.
(In general: A flow cytometer gives signals particle by particle.)

The test system of the next experiment is LNCaP. Briefly: MTT cell viability assay, LNCaP. The class given is cell-based, human. The conditions noted are these: 96 hours exposure. As for the experimental part: as §1
In experiment [3] the test system is androgen-dependent LAPC4 human prostate tumor xenograft. The note with it: cited from earlier work.
Another experiment concerns PC-3. Briefly: MTT cell viability assay, PC-3. The conditions noted are these: MTT, 96 hours exposure. The class given is cell-based. As for the experimental part:
Cells were grown as a monolayer in a humidified incubator (5% CO2) at 37° C. To determine the effect of the compounds on cell proliferation, cells were plated (2500 cells/well) in 96-well cell culture dishes (Corning, Inc. Corning, N.Y.). […] The cells were then allowed to grow in the presence of the drugs for 96 hours. […] Experiments were carried out three times with six replicates per dose per experiment (n=18). […] Combination index (CI) was calculated as previously described^44. CI values less than 1 are considered synergistic.

Experiment [4] has as its system PC-3 cells. Briefly: Western blot of ERSR related proteins in PC-3 cells. The experiment is classed as cell-based. As for the experimental part:
Protein was isolated, subjected to SDS-PAGE, transferred and imaged as previously described^45. All primary antibodies were purchased from Cell Signaling (Danvers, Mass.). Quantitation of relative protein expression was determined via densitometry using the software ImageQuant 5.0 (Molecular Dynamics) with each protein normalized to its respective loading control. Results represent the average of at least three independent experiments, with representative blots shown.
Background: In western blotting, separated proteins are transferred to a membrane and probed.

The structures appear in SMILES notation. Entries after “also recorded” stand apart in the source; their conditions may differ.

One may read the GI50 as the concentration giving 50% growth inhibition. As for `C[C@]12CC[C@H](O)CC1=CC[C@@H]1[C@@H]2CC[C@]2(C)C(n3cnc4ccccc43)=CC[C@@H]12` [Compound 5, 3β-hydroxy-17-(1H-benzimidazole-1-yl)androsta-5,16-diene], the GI90 in the experiment with DU-145 is 15.95 µM; in the experiment with LNCaP it was 31.99 µM; with PC-3, 18.62 µM. Moreover, the GI50 with DU-145 (Homo sapiens) was determined as 7.55 µM; with LNCaP (Homo sapiens), 3.15 µM; in the experiment with PC-3 (Homo sapiens) it was 7.82 µM. The down-regulated gene ontologies entry in the experiment with PC-3 cells [1] is given as “associated with the cell cycle, especially S-phase (DNA replication)”. Also, in the experiment on PC-3 cells [1], the “most enriched up-regulated gene ontologies” value was “those relating to stress and metabolism, in particular amino acid metabolism”. For the same compound, in the experiment with PC-3 cells [1] (validated by qRT-PCR), the “S100P calcium binding protein gene expression” value is “most highly up-regulated gene”. For the same compound, the “exit from G1 phase of the cell cycle” value with PC-3 cells [2] is “prevent the exit from G1 phase”. In addition, in experiment [3] (50 mg/kg/twice daily, P=0.00065), the “reduction in the mean final tumor volume compared with controls” value is recorded as 93.8%. Moreover, in experiment [3] (Compound 6 at 0.15 mmol/kg twice daily), the “effect on growth of LAPC4 tumor xenograft” value is “very effective; also recorded: marked suppression”. The “phosphorylation of eIF2α” value in the experiment with PC-3 cells [4] (20 μM, 6 and 24 hours, PC-3) is on record as “induced the phosphorylation of eIF2α”. Moreover, the “cyclin D1 protein” value in the experiment on PC-3 cells [4] (PC-3, after 24 hrs) is reported as “down-regulation of cyclin D1 protein significantly”.
